Read-outs that look alike come from different tables or passages of the source.
Assays:
Assay type in all cases: cell-based
HepG2 parental = assay: In vitro cell viability (CellTiter-Glo), HepG2 parental; settings: Homo sapiens, 96 hours
Procedure: (§1) HEK293 cells containing empty pCLPCx vector (HEK293 empty), HEK293 cells stably over-expression WFS1 (HEK293 WFS1), HepG2, and HepG2 cells where WFS1 was depleted via CRISPR/Cas9 (HepG2 WFS1 KO) cells were plated into 96-well black plates (Corning, product #3904) in 100 microliters of complete DMEM cell culture media [DMEM (Life Technologies, product #11960-051) media supplemented with 10% FBS (Hyclone, catalog #SH30071.03), antimycotic/antibiotic (Life Technologies, product #15240-062), and Glutamax (Life Technologies, product #35050-061)] at 1,000 (HEK293) or 5,000 (HepG2) cells per well. Cells were allowed to attach and grow overnight, after which compounds are added at various concentrations. Cell viability was assessed 96 hrs after compound addition with CellTiter-Glo reagent (Promega, catalog #G7570) according to manufacturer's protocol and measurement on a Pherastar luminescence plate reader (BMG Labtech).
To determine the effect of WFS1 depletion on compound mediated inhibition of cell viability, parental HepG2 cells and HepG2 cells where WFS1 was deleted by CRISPR/Cas9 were exposed to increasing concentrations of either Compound 136 or Compound 253 for 96 hours after which time viability was determined using Cell Titer Glo reagent (Promega). […] The IC50s for the viability of both the HepG2 parental and WFS1 knockout cells are summarized in Table 47: A<0.5 μM; 0.5 μM≤<2.0 μM; 2.0 μM≤C<10.0 μM; D≥[…].

Hek293 empty vector = assay: In vitro cell viability (CellTiter-Glo), Hek293 empty vector; settings: Homo sapiens
Procedure: (§2) HEK293 (ATCC, catalog #CRL-1573) cells are plated in 10 cm dishes (Corning, product #430167) into 10 mL of complete DMEM cell culture media [DMEM (Life Technologies, product #11960-051) media supplemented with 10% FBS (Hyclone, catalog #SH30071.03), antimycotic/antibiotic (Life Technologies, product #15240-062), and Glutamax (Life Technologies, product #35050-061)] at 3×10^6 cells per dish. Cells are allowed to attach and grow overnight at 37° C. in humidified 5% CO2. Cells are co-transfected with pVSV-G, pCMV-Gag/Pol and pCLPCX_WFS1 using Fugene 6 (Promega, catalog #E2691) according to manufacturer's protocol. Separately, cells are co-transfected with pVSV-G, pCMV-Gag/Pol and pCLPCX to produce control retrovirus. Cell culture media containing retrovirus (viral supernatant) is collected at 48 and 72 hours following transfection, filtered through a 0.4 uM filter, and stored at −80° C.
(§3) HEK293 cells are plated in 6 well plates (Corning, product #3516) in 2 mL of complete DMEM cell culture media at 1×10^5 cells well and allowed to attach and grow overnight at 37° C. in humidified 5% CO2. The following day, the media is replaced with viral supernatant to which 10 ug/ml of Polybrene® (Santa Cruz Biotech, catalog #sc-134220) is added. Viral supernatant is replaced 24 hours later with complete DMEM media. Transduced cells are selected in complete DMEM cell culture media containing 1 microgram/mL of puromycin (Life Technologies, catalog #A1113803).
as §1
(§4) The IC50s for the viability of both the Hek293 empty vector and WFS1 over-expressing cells are summarized in Table 47: A<0.06 μM; 0.06 μM≤B<0.6 μM; 0.6 μM≤C<3.0 μM; D≥3.0 μM.

Colo-205 cells = assay: Calcium flux assay (FLIPR Calcium 5); settings: Homo sapiens, COLO 205, 0.6 h, FLIPR Calcium 5, measured over 36 minutes
Procedure: Compounds described herein induced ER stress by causing intracellular calcium flux. Calcium flux was measured in Colo-205 cells using the FLTPR® Calcium 5 Assay Kit according to manufacter's protocol (Molecular Devices, Cat. #R8186) on a FLIPR3 system (Molecular Devices). Calcium flux is measured over 36 minutes. The Colo-205 calcium flux assay data are summarized in Table 47: A<0.6 μM; 0.6 μM≤B<2.0 μM; 2.0 μM≤C<10.0 μM; D≥10.0 μM.

[1] = test system: Hek293 WFS1 over-expressor; assay: In vitro cell viability (CellTiter-Glo), Hek293 WFS1 over-expressor; settings: for IC50: Homo sapiens
Procedure: WFS1 cDNA is amplified from clone RC202901 (Origene Technologies) with primers 5′-TCCGCGGCCCCAAGCTTATCGCCATGGACTCCAACACTGC-3′ (SEQ ID NO: 1), 5′-GATGGGCCCAGATCTCGAGTCAGGCCGCCGACAGGAATG-3′ (SEQ ID NO: 2) and cloned into a retroviral mammalian expression vector pCLPCX using HD Infusion (CLONTECH) at Hind3-Xhol sites using standard procedures. The resulting clone is identified as pCLPCX_WFS1.
as §2, §3, §1, §4

HepG2 XBP1(u)-Luc cells = assay: HepG2 XBP1 reporter assay; settings: Homo sapiens, 6 h
In short: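 Reporter cells are HepG2 stably carrying unspliced XBP1 fused to firefly luciferase, which becomes in-frame after IRE1alpha-mediated splicing. SteadyGlo luminescence was normalized to DMSO-treated cells for IC50 calculation.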

[2] = HEK293, read-out: Hek293 empty vector viability
[3] = HEK293, Hek293 WFS1 over-expressing cells, read-out: Hek293 WFS1 viability

Compound	IC50 (HepG2 parental; read-out: HepG2 viability) [nM]	IC50 (Hek293 empty vector; [2]) [nM]	EC50 (Colo-205 cells) [nM]	IC50 [1, 3] [nM]	IC50 (HepG2 XBP1(u)-Luc cells) [nM]	IC50 (HepG2 parental; cell viability, Cell Titer Glo, read-out: IC50) [nM]	IC50 (HepG2 parental; cell viability, read-out: IC50 class) [nM]	IC50 (Hek293 empty vector; cell viability, Hek293 empty vector, read-out: IC50) [nM]	IC50 (Hek293 empty vector; cell viability, Hek293 empty vector, read-out: IC50 class) [nM]	IC50 ([1]; HEK293, cell viability, Hek293 WFS1 over-expressor, read-out: IC50) [nM]	IC50 ([1]; HEK293, cell viability, Hek293 WFS1 over-expressor, read-out: IC50 class) [nM]	reduction in the IC50 on over-expression of WFS1 in Hek293 cells ([1]; cell viability, WFS1 over-expressor vs empty vector) [fold]
Cc1nc(NCc2cnn(Cc3ccc(F)cc3)c2)nc2c1N(C)C(=O)[C@H](C)N2C [Compound 1, (7S)-2-(((1-(4-fluorobenzyl)-1H-pyrazol-4-yl)methyl)amino)-4,5,7,8-tetramethyl-7,8-dihydropteridin-6(5H)-one]	< 500	≥ 3000	< 600	< 60								
Cc1nc(NCc2cnn(Cc3ccc(F)cc3)c2)nc2c1NC(=O)[C@H](C)N2C [Compound 4, (7S)-2-(((1-(4-fluorobenzyl)-1H-pyrazol-4-yl)methyl)amino)-4,7,8-trimethyl-7,8-dihydropteridin-6(5H)-one]	2000 to 10000	≥ 3000	< 600	< 60								
Cc1nc(C(F)(F)F)ccc1Cn1cc(CNc2nc(C)c3c(n2)N(C)[C@@H](C)C(=O)N3)cn1 [Compound 188, (S)-4,7,8-trimethyl-2-(((1-((2-methyl-6-(trifluoromethyl)pyridin-3-yl)methyl)-1H-pyrazol-4-yl)methyl)amino)-7,8-dihydropteridin-6(5H)-one]		≥ 3000	600 to 2000	< 60	< 600							
Cc1nc(NCc2cnn(Cc3ccnc(C(F)(F)F)c3)c2)nc2c1NC(=O)[C@H](C)N2C [Compound 207, (7S)-4,7,8-trimethyl-2-(((1-((2-(trifluoromethyl)pyridin-4-yl)methyl)-1H-pyrazol-4-yl)methyl)amino)-7,8-dihydropteridin-6(5H)-one]		≥ 3000	600 to 2000	< 60	< 600							
Cc1nc(N[C@H]2C[C@H](Oc3cc(F)c(F)c(F)c3)C2)nc2c1N(C)C(=O)[C@H](C)N2C [Compound 253, (7S)-4,5,7,8-tetramethyl-2-((trans-3-(3,4,5-trifluorophenoxy)cyclobutyl)amino)-7,8-dihydropteridin-6(5H)-one]	500 to 2000	≥ 3000	< 600	< 60		640	500 to 2000	15000	≥ 3000	12	< 60	> 1000
Cc1nc(N[C@H]2C[C@H](Oc3ccc(C(F)(F)F)nc3)C2)nc2c1NC(=O)[C@H](C)N2C [Compound 324, (7S)-4,7,8-trimethyl-2-((trans-3-((6-(trifluoromethyl)pyridin-3-yl)oxy)cyclobutyl)amino)-7,8-dihydropteridin-6(5H)-one]		≥ 3000	< 600	< 60	< 600							
Cc1nc(N[C@H]2C[C@H](Sc3cc(F)c(F)c(F)c3)C2)nc2c1NC(=O)[C@H](C)N2C [Compound 329, (7S)-4,7,8-trimethyl-2-((trans-3-((3,4,5-trifluorophenyl)thio)-cyclobutyl)amino)-7,8-dihydropteridin-6(5H)-one]		≥ 3000	600 to 2000	< 60	< 600							
Cc1nc(N[C@H]2C[C@@H](Sc3cc(F)c(F)c(F)c3)C2)nc2c1NC(=O)[C@H](C)N2C [Compound 332, (7S)-4,7,8-trimethyl-2-((cis-3-((3,4,5-trifluorophenyl)thio)cyclobutyl)amino)-7,8-dihydropteridin-6(5H)-one]		≥ 3000	600 to 2000	< 60	< 600							
Cc1nc(NCc2cnn(Cc3ccc(C(F)(F)F)nc3)c2)nc2c1NC(=O)[C@H](C)N2C(C)C [Compound 385, (7S)-8-isopropyl-4,7-dimethyl-2-(((1-((6-(trifluoromethyl)pyridin-3-yl)methyl)-1H-pyrazol-4-yl)methyl)amino)-7,8-dihydropteridin-6(5H)-one]		≥ 3000	600 to 2000	< 60	< 600							
Cc1nc(NCc2cnn(Cc3ccc(C(F)(F)F)nc3)c2)nc2c1NC(=O)[C@H](C1CC1)N2C [Compound 386, (7S)-7-Cyclopropyl-4,8-dimethyl-2-(((1-((6-(trifluoromethyl)pyridin-3-yl)methyl)-1H-pyrazol-4-yl)methyl)amino)-7,8-dihydropteridin-6(5H)-one]		≥ 3000	600 to 2000	< 60	< 600							
Cc1nc(NCc2cnn(Cc3ccc(C(F)(F)F)nc3C(C)C)c2)nc2c1NC(=O)[C@H](C)N2C [Compound 388, (7S)-2-(((1-((2-isopropyl-6-(trifluoromethyl)pyridin-3-yl)methyl)-1H-pyrazol-4-yl)methyl)amino)-4,7,8-trimethyl-7,8-dihydropteridin-6(5H)-one]		≥ 3000	< 600	< 60	< 600							
CCN1c2nc(NCc3cnn(Cc4ccc(C(F)(F)F)nc4)c3)nc(C)c2NC(=O)[C@@H]1C [Compound 395, (7S)-8-Ethyl-4,7-dimethyl-2-(((1-((6-(trifluoromethyl)pyridin-3-yl)methyl)-1H-pyrazol-4-yl)methyl)amino)-7,8-dihydropteridin-6(5H)-one]		≥ 3000	600 to 2000	< 60	600 to 2000							
Cc1nc(NCc2cnn(Cc3cc(C(F)(F)F)nn3C)c2)nc2c1NC(=O)[C@H](C1CC1)N2C [Compound 396, (7S)-7-Cyclopropyl-4,8-dimethyl-2-(((1-((1-methyl-3-(trifluoromethyl)-1H-pyrazol-5-yl)methyl)-1H-pyrazol-4-yl)methyl)amino)-7,8-dihydropteridin-6(5H)-one]		≥ 3000	600 to 2000	< 60	< 600							
Cc1nc(NCc2cnn(Cc3cc(C(F)(F)F)nn3C)c2)nc2c1NC(=O)[C@H](C(C)C)N2C [Compound 397, (7S)-7-Isopropyl-4,8-dimethyl-2-(((1-((1-methyl-3-(trifluoromethyl)-1H-pyrazol-5-yl)methyl)-1H-pyrazol-4-yl)methyl)amino)-7,8-dihydropteridin-6(5H)-one]		≥ 3000	600 to 2000	< 60	< 600							
